Source: US20070027118A1 (priority 2005, published 2007)

Target: 11β-hsd-1 enzyme (Homo sapiens, UniProt P28845)
Assay: biochemical
Conditions: Table 2; inhibitor 0.1 mM as printed
Method: Percentage of inhibition was determined in a 100 mM Triethanolamine buffer, pH 8.0, 200 mM NaCl, 0.02% n-dodecyl β-D-maltoside and 5 mM β-ME. A typical reaction was carried on a Corning® u-bottom 96-well plate and is described as follows: 11β-hsd-1 enzyme (5 nM, final concentration) was pre-incubated in the presence of the inhibitor and NADPH (500 μM, final concentration) for at least 30 minutes
in the assay buffer. When pre-incubation was completed, the reaction was initiated by adding the regenerating system (2 mM Glucose-6-Phosphate, 1U/mL Glucose-6-Phosphate dehydrogenase, and 6 mM MgCl2, all the concentration reported are final in the assay buffer), and 3H-cortisone (200 nM, final concentration). After 60 minutes, 60 μL of the assay mixture was transferred to a second 96-well plate and mixed with an equal volume of dimethylsulfoxide to stop the reaction. A 15 μL aliquot from the reaction mixture was loaded into a C-18 column (Polaris C18-A, 50×4.6 mm, 5 μ, 180 Angstrom from Varian) connected to an automated High-throughput Liquid Chromatography instrument developed by Cohesive Technologies Inc of Franklin, Mass., with a […] model 3 Radio-HPLC detector from IN/US of Tampa, Fla. The substrate and product peaks were separated by using an isocratic mixture of 43:57 methanol to water (v/v) at a flow rate of 1.0 mL/min.
Percent Inhibition was calculated based on the following equation: (1-(3H-Cortisol peak area in the […] of inhibitor)×100).

Sequence of 11β-hsd-1 enzyme (P28845 whole entry, species assumed): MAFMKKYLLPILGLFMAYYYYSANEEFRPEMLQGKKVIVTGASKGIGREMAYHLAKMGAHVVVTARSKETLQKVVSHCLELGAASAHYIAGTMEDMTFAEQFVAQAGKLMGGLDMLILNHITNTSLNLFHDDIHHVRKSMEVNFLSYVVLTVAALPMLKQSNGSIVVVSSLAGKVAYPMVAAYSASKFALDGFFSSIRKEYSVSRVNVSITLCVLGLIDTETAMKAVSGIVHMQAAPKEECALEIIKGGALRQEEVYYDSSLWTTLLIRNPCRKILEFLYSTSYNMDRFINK

With `CCc1cccc(NS(=O)(=O)N2C[C@@H]3[C@H](C2)C3(C#N)N2CCOCC2)n1` (some centres unmarked) [Example 115, (1R*5S*6S*)-6-cyano-N-(6-ethylpyridin-2-yl)-6-morpholin-4-yl-3-azabicyclo[3.1.0]hexane-3-sulfonamide] the “% Inh @ 0.1 mM” value was 0%.

Same assay, conditions: read-out: % Inh @ 0.1 mM

Going from `CCCOC1CCN(S(=O)(=O)Nc2cccc(CC)n2)CC1` [Example 111, N-(6-ethylpyridin-2-yl)-4-propoxypiperidine-1-sulfonamide] to `CCc1cccc(NS(=O)(=O)N2CCN(c3nc(C)cc(CC(C)C)n3)CC2)n1` [Example 143, N-(6-ethylpyridin-2-yl)-4-(4-isobutyl-6-methylpyrimidin-2-yl)piperazine-1-sulfonamide], the inhibition falls from 50.8% to 36.7%.

Going from `Cc1cccc(NS(=O)(=O)N2CCN(c3ccccn3)CC2)n1` [Example 126, N-(6-methylpyridin-2-yl)-4-pyridin-2-ylpiperazine-1-sulfonamide] to `Cc1cccc(NS(=O)(=O)N2CCN(c3cc(C#N)ccn3)CC2)n1` [Example 135, 4-(4-cyanopyridin-2-yl)-N-(6-methylpyridin-2-yl)piperazine-1-sulfonamide], the inhibition falls from 57.8% to 29.9%.

Compared with `Cc1cccc(NS(=O)(=O)N2CCCCCC2)n1` [Example 130, N-(6-methylpyridin-2-yl)azepane-1-sulfonamide], `Cc1cccc(NS(=O)(=O)N2CCN(c3nc4ncccc4o3)CC2)n1` [Example 152, N-(6-methylpyridin-2-yl)-4-[13]oxazolo[45-b]pyridin-2-ylpiperazine-1-sulfonamide] is lower in inhibition: 56.7% for the first, 47.6% for the second.

Going from `CCc1cccc(NS(=O)(=O)N2CCN(Cc3c(F)cccc3F)CC(COC)C2)n1` (centres unmarked) [Example 141, 4-(26-difluorobenzyl)-N-(6-ethylpyridin-2-yl)-6-(methoxymethyl)-14-diazepane-1-sulfonamide] to `CCc1cccc(NS(=O)(=O)N2CCN(C)CC(COCc3c(F)cccc3F)C2)n1` (centres unmarked) [Example 142, 6-{[(26-difluoro-benzyl)oxy]methyl)-N-(6-ethylpyridin-2-yl)-4-methyl-14-diazepane-1-sulfonamide], the inhibition falls from 13.8% to 5.9%.

First: CCc1cccc(NS(=O)(=O)N2CCN(c3ccc(C(=O)NC(C)C)cn3)CC2)n1 [Example 146, 6-(4-{[(6-ethylpyridin-2-yl)amino]sulfonyl)piperazin-1-yl)-N-isopropylnicotinamide]
Second: CCc1cccc(NS(=O)(=O)N2CCN(c3ccc(C(=O)N4CCOCC4)cn3)CC2)n1 [Example 147, N-(6-ethylpyridin-2-yl)-4-[5-(morpholin-4-ylcarbonyl)pyridin-2-yl]piperazine-1-sulfonamide]
The inhibition of the first is higher: 30.4% for the first, 27.2% for the second.

First: O=S(=O)(Nc1ccc2ccccc2n1)N1CCN(c2cnccn2)CC1 [Example 158, 4-pyrazin-2-yl-N-quinolin-2-ylpiperazine-1-sulfonamide]
Second: O=S(=O)(Nc1ccc2ccccc2n1)N1CCCN(c2ncccn2)CC1 [Example 163, 4-pyrimidin-2-yl-N-quinolin-2-yl-14-diazepane-1-sulfonamide]
The inhibition of the first is higher: 44.8% for the first, 10.5% for the second.

Compared with `O=S(=O)(Nc1ccc2ccccc2n1)N1CCN(c2ncccc2C(F)(F)F)CC1` [Example 159, N-quinolin-2-yl-4-[3-(trifluoromethyl)pyridin-2-yl]piperazine-1-sulfonamide], `N#Cc1cccnc1N1CCCN(S(=O)(=O)Nc2ccc3ccccc3n2)CC1` [Example 168, 4-(3-cyanopyridin-2-yl)-N-quinolin-2-yl-14-diazepane-1-sulfonamide] is higher in inhibition: 53.4% for the first, 56.7% for the second.

Going from `COc1cc2c(nn1)CCN(S(=O)(=O)Nc1ccc3ccccc3n1)CC2` [Example 170, 3-methoxy-N-quinolin-2-yl-5689-tetrahydro-7H-pyridazino[34-d]azepine-7-sulfonamide] to `CCc1cccc(NS(=O)(=O)N2CCCN(c3ncccn3)CC2)n1` [Example 172, N-(6-ethylpyridin-2-yl)-4-pyrimidin-2-yl-14-diazepane-1-sulfonamide], the inhibition rises from 21.2% to 60.2%.
